In ChEMBL document CHEMBL1255373, “In vitro antibacterial activity of CE-156811, a novel analog derived from hygromycin A” (2008):
Values after ≈ are worked out from the molar mass of the structure shown.

Experiments:
Format in all cases: functional
Moraxella catarrhalis = assay: Antibacterial activity against Moraxella catarrhalis clinical isolate by broth microdilution method
Haemophilus influenzae = assay: Antibacterial activity against Haemophilus influenzae clinical isolate by broth microdilution method
Acinetobacter sp. = assay: Antibacterial activity against Acinetobacter sp. by broth microdilution method
Klebsiella aerogenes = assay: Antibacterial activity against Enterobacter aerogenes clinical isolate by broth microdilution method
Pseudomonas aeruginosa = assay: Antibacterial activity against Pseudomonas aeruginosa clinical isolate by broth microdilution method
Enterobacter cloacae = assay: Antibacterial activity against Enterobacter cloacae clinical isolate by broth microdilution method
Burkholderia cepacia = assay: Antibacterial activity against Burkholderia cepacia clinical isolate by broth microdilution method
Citrobacter freundii = assay: Antibacterial activity against Citrobacter freundii clinical isolate by broth microdilution method
Klebsiella pneumoniae [1] = assay: Antibacterial activity against extended-spectrum beta-lactamase producing Klebsiella pneumoniae clinical isolate by broth microdilution method
Klebsiella pneumoniae [2] = assay: Antibacterial activity against Klebsiella pneumoniae clinical isolate by broth microdilution method
Citrobacter koseri = assay: Antibacterial activity against Citrobacter diversus clinical isolate by broth microdilution method
[3] = system: Stenotrophomonas maltophilia; assay: Antibacterial activity against Stenotrophomonas maltophilia clinical isolate by broth microdilution method
Shigella sp. = assay: Antibacterial activity against Shigella sp. by broth microdilution method
Morganella morganii = assay: Antibacterial activity against Morganella morganii clinical isolate by broth microdilution method
Serratia marcescens = assay: Antibacterial activity against Serratia marcescens clinical isolate by broth microdilution method
Escherichia coli = assay: Antibacterial activity against Escherichia coli clinical isolate by broth microdilution method
Salmonella sp. = assay: Antibacterial activity against Salmonella sp. by broth microdilution method
Proteus mirabilis = assay: Antibacterial activity against Proteus mirabilis clinical isolate by broth microdilution method
Klebsiella oxytoca = assay: Antibacterial activity against Klebsiella oxytoca clinical isolate by broth microdilution method
Providencia rettgeri = assay: Antibacterial activity against Providencia rettgeri clinical isolate by broth microdilution method
Proteus vulgaris = assay: Antibacterial activity against Proteus vulgaris clinical isolate by broth microdilution method
Enterococcus faecalis [4] = assay: Antibacterial activity against […] Enterococcus faecalis ATCC 29212 by broth microdilution method
Staphylococcus aureus [5] = assay: Antibacterial activity against linezolid-resistant Staphylococcus aureus 01A1221 by broth microdilution method
Enterococcus faecium [6] = assay: Antibacterial activity against linezolid-resistant Enterococcus faecium 03B1074 by broth microdilution method
Enterococcus faecalis [7] = assay: Antibacterial activity against linezolid-resistant Enterococcus faecalis 03A1128 by broth microdilution method
Enterococcus faecium [8] = assay: Antibacterial activity against linezolid-resistant Enterococcus faecium 03B1076 by broth microdilution method
Enterococcus faecium [9] = assay: Antibacterial activity against linezolid-resistant Enterococcus faecium 03B1073 by broth microdilution method
Enterococcus faecium [10] = assay: Antibacterial activity against linezolid-resistant Enterococcus faecium 03B1077 by broth microdilution method
Staphylococcus aureus [11] = assay: Antibacterial activity against […] Staphylococcus aureus ATCC 29213 by broth microdilution method
Enterococcus faecium [12] = assay: Antibacterial activity against linezolid-resistant Enterococcus faecium 03B1075 by broth microdilution method
Enterococcus faecium [13] = assay: Antibacterial activity against linezolid-resistant Enterococcus faecium 03B1078 by broth microdilution method
Staphylococcus aureus [14] = assay: Antibacterial activity against linezolid-resistant Staphylococcus aureus 01A1220 by broth microdilution method

## CC1(C)S[C@@H]2[C@H](NC(=O)[C@H](N)c3ccc(O)cc3)C(=O)N2[C@H]1C(=O)O [AMOXICILLIN]
Moraxella catarrhalis
  MIC50: 1 µg/mL (≈ 2.74 µM)
  MIC90: 8 µg/mL (≈ 21.9 µM)
Haemophilus influenzae
  MIC50: 2 µg/mL (≈ 5.47 µM)
  MIC90: 32 µg/mL (≈ 87.6 µM)

## CC(C)(O/N=C(\C(=O)N[C@@H]1C(=O)N2C(C(=O)[O-])=C(C[n+]3ccccc3)CS[C@H]12)c1csc(N)n1)C(=O)O [CEFTAZIDIME]
Acinetobacter sp.
  MIC50: 16 µg/mL (≈ 29.3 µM)
  MIC90: > 64 µg/mL
Klebsiella aerogenes
  MIC50: 0.5 µg/mL (≈ 0.915 µM)
  MIC90: > 64 µg/mL
Pseudomonas aeruginosa
  MIC50: 16 µg/mL (≈ 29.3 µM)
  MIC90: > 64 µg/mL
Enterobacter cloacae
  MIC50: 0.5 µg/mL (≈ 0.915 µM)
  MIC90: > 64 µg/mL
Burkholderia cepacia
  MIC50: 16 µg/mL (≈ 29.3 µM)
  MIC90: > 64 µg/mL
Citrobacter freundii
  MIC50: 0.5 µg/mL (≈ 0.915 µM)
  MIC90: > 64 µg/mL
Klebsiella pneumoniae [1]
  MIC50: 0.5 µg/mL (≈ 0.915 µM)
  MIC90: > 64 µg/mL
Klebsiella pneumoniae [2]
  MIC50: 0.5 µg/mL (≈ 0.915 µM)
  MIC90: > 64 µg/mL
Citrobacter koseri
  MIC50: 0.5 µg/mL (≈ 0.915 µM)
  MIC90: > 64 µg/mL
[3]
  MIC50: 16 µg/mL (≈ 29.3 µM)
  MIC90: > 64 µg/mL
Shigella sp.
  MIC50: 0.5 µg/mL (≈ 0.915 µM)
  MIC90: > 64 µg/mL
Morganella morganii
  MIC50: 0.5 µg/mL (≈ 0.915 µM)
  MIC90: > 64 µg/mL
Serratia marcescens
  MIC50: 0.5 µg/mL (≈ 0.915 µM)
  MIC90: > 64 µg/mL
Escherichia coli
  MIC50: 0.5 µg/mL (≈ 0.915 µM)
  MIC90: > 64 µg/mL
Salmonella sp.
  MIC50: 0.5 µg/mL (≈ 0.915 µM)
  MIC90: > 64 µg/mL
Proteus mirabilis
  MIC50: 0.5 µg/mL (≈ 0.915 µM)
  MIC90: > 64 µg/mL
Klebsiella oxytoca
  MIC50: 0.5 µg/mL (≈ 0.915 µM)
  MIC90: > 64 µg/mL
Providencia rettgeri
  MIC50: 0.5 µg/mL (≈ 0.915 µM)
  MIC90: > 64 µg/mL
Proteus vulgaris
  MIC50: 0.5 µg/mL (≈ 0.915 µM)
  MIC90: > 64 µg/mL

## O=C(N[C@H](CO)[C@H](O)c1ccc([N+](=O)[O-])cc1)C(Cl)Cl [CHLORAMPHENICOL]
Enterococcus faecalis [4]
  MIC: 8 µg/mL (≈ 24.8 µM)
Staphylococcus aureus [5]
  MIC: 32 µg/mL (≈ 99 µM)
Enterococcus faecium [6]
  MIC: 32 µg/mL (≈ 99 µM)
Enterococcus faecalis [7]
  MIC: > 32 µg/mL
Enterococcus faecium [8]
  MIC: 32 µg/mL (≈ 99 µM)
Enterococcus faecium [9]
  MIC: 8 µg/mL (≈ 24.8 µM)
Enterococcus faecium [10]
  MIC: 8 µg/mL (≈ 24.8 µM)
Staphylococcus aureus [11]
  MIC: 8 µg/mL (≈ 24.8 µM)
Enterococcus faecium [12]
  MIC: 32 µg/mL (≈ 99 µM)
Enterococcus faecium [13]
  MIC: 16 µg/mL (≈ 49.5 µM)
Staphylococcus aureus [14]
  MIC: > 32 µg/mL
